Assay results as given in ChEMBL document CHEMBL5678818, “Discovery of potent SOS1 inhibitors that block RAS activation via disruption of the RAS-SOS1 interaction” (Proc Natl Acad Sci U S A, 2019).

Columns and labels:
[1] = tested on: Receptor-type tyrosine-protein kinase FLT3 (Homo sapiens), P36888 [D835V]; test: Inhibition of FLT3 D835V mutant (unknown origin) assessed as residual activity at 1000 nM by KINOMEscan analysis relative to control
[2] = biological target: Cyclin-dependent kinase 11B (Homo sapiens) (UniProt P21127); test: Inhibition of CDK11 (unknown origin) assessed as residual activity at 100 nM by KINOMEscan analysis relative to control
[3] = biological target: Dual specificity protein kinase CLK3 (Homo sapiens) (UniProt P49761); test: Inhibition of CLK3 (unknown origin) assessed as residual activity at 100 nM by KINOMEscan analysis relative to control
[4] = biological target: Casein kinase I isoform gamma-1 (Homo sapiens) (UniProt Q9HCP0); test: Inhibition of CSNK1G1 (unknown origin) assessed as residual activity at 100 nM by KINOMEscan analysis relative to control
[5] = biological target: T1, Tyrosine-protein kinase ITK/TSK (Homo sapiens) (UniProt Q08881); test: Inhibition of ITK (unknown origin) assessed as residual activity at 100 nM by KINOMEscan analysis relative to control
T1 sequence (whole entry): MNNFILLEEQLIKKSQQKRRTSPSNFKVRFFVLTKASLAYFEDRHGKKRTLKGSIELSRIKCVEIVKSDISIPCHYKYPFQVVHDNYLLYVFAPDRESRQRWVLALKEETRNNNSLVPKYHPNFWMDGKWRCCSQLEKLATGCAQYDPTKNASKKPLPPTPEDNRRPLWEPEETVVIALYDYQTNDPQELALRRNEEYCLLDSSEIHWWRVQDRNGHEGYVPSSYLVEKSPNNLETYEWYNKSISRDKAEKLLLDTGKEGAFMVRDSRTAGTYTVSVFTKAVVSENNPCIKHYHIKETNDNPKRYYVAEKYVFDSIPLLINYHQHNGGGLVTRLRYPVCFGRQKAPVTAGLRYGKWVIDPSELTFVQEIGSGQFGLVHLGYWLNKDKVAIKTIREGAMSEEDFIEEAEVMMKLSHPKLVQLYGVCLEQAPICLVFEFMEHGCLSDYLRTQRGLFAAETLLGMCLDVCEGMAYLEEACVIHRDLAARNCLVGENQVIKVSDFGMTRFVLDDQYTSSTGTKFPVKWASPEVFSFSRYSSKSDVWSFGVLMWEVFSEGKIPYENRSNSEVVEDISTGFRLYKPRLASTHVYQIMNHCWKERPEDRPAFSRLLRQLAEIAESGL

[6] = biological target: T2, Mitogen-activated protein kinase kinase kinase kinase 3 (Homo sapiens) (UniProt Q8IVH8); test: Inhibition of MAP4K3 (unknown origin) assessed as residual activity at 100 nM by KINOMEscan analysis relative to control
T2 sequence (whole entry): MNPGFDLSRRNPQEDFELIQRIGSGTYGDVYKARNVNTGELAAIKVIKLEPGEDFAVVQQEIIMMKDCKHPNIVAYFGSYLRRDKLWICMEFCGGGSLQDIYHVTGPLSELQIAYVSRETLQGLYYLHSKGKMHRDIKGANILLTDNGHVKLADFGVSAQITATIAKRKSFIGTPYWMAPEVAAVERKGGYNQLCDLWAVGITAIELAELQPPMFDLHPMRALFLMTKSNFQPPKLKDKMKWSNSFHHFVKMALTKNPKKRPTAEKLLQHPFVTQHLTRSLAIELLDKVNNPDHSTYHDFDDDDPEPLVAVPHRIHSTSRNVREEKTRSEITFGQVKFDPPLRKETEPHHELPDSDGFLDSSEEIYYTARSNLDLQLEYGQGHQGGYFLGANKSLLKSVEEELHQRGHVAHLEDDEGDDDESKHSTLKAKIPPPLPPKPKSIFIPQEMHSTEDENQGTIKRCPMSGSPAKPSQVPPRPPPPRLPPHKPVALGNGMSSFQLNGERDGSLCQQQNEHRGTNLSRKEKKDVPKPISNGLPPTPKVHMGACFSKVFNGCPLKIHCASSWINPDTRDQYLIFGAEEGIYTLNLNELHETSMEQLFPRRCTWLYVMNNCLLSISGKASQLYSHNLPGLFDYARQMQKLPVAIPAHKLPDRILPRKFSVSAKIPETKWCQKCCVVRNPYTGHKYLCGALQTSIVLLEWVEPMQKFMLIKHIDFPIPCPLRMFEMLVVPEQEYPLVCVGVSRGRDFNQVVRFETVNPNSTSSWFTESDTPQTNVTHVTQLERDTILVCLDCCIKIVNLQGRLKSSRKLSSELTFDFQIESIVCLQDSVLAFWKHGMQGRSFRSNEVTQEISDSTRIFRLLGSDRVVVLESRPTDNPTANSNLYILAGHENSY

[7] = biological target: T3, Serine/threonine-protein kinase Nek9 (Homo sapiens) (UniProt Q8TD19); test: Inhibition of NEK9 (unknown origin) assessed as residual activity at 100 nM by KINOMEscan analysis relative to control
T3 sequence (whole entry): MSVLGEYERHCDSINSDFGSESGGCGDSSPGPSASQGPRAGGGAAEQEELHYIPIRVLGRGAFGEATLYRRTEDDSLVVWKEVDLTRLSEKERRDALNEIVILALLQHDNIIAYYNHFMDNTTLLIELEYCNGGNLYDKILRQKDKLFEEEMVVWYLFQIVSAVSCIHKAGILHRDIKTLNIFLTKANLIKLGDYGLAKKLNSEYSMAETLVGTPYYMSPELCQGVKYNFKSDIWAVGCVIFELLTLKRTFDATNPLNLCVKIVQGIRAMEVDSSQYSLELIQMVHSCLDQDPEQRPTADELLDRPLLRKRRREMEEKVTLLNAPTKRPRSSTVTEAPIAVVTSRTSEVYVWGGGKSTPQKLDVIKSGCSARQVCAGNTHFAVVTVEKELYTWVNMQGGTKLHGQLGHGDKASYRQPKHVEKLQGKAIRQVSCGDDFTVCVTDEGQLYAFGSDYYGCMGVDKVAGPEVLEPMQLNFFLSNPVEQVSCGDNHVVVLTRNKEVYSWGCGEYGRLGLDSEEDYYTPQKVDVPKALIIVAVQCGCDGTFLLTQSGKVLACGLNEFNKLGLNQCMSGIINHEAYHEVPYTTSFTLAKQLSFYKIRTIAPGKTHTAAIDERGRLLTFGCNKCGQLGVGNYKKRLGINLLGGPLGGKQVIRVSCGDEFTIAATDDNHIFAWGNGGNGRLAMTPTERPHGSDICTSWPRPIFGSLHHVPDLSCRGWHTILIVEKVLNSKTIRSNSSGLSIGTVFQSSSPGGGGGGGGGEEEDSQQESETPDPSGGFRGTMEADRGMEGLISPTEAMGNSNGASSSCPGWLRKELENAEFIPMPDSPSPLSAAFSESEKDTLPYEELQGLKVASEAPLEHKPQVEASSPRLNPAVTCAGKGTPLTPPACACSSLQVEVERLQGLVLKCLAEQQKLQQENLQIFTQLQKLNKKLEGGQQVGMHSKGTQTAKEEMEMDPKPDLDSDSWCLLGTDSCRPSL

[8] = biological target: Phosphatidylinositol 4,5-bisphosphate 3-kinase catalytic subunit alpha isoform (Homo sapiens) (UniProt P42336); test: Inhibition of PIK3CA (unknown origin) assessed as residual activity at 100 nM by KINOMEscan analysis relative to control
Sequence of Phosphatidylinositol 4,5-bisphosphate 3-kinase catalytic subunit alpha isoform (Homo sapiens) (P42336 whole entry, canonical isoform): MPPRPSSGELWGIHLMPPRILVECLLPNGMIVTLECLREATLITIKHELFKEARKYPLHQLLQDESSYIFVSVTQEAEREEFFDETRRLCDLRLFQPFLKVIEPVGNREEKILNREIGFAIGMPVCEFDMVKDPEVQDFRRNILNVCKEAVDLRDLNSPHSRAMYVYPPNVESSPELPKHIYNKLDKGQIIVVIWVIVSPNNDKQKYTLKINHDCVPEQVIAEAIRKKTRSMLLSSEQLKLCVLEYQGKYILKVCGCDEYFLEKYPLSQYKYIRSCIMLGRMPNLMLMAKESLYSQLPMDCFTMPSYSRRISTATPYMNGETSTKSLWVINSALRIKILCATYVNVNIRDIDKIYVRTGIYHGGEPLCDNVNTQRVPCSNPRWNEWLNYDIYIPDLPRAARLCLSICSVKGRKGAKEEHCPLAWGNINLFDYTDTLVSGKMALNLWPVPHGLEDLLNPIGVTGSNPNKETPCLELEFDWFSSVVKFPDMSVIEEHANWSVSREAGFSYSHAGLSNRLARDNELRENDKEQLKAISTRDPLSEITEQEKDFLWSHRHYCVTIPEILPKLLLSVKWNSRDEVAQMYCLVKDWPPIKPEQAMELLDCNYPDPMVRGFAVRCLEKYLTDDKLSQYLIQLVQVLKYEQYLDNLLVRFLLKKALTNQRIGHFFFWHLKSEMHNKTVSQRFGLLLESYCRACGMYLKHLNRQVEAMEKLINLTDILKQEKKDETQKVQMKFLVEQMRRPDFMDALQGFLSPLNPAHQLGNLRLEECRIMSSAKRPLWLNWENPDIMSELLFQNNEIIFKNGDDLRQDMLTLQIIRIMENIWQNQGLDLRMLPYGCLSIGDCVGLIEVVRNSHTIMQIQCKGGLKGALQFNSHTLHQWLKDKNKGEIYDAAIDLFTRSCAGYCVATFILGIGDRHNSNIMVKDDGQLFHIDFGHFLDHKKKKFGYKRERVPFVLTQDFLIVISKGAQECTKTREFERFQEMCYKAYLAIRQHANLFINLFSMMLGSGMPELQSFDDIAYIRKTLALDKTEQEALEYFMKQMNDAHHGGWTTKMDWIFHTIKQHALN

Sequence of Casein kinase I isoform gamma-1 (Homo sapiens) (Q9HCP0 whole entry, looked up, canonical isoform): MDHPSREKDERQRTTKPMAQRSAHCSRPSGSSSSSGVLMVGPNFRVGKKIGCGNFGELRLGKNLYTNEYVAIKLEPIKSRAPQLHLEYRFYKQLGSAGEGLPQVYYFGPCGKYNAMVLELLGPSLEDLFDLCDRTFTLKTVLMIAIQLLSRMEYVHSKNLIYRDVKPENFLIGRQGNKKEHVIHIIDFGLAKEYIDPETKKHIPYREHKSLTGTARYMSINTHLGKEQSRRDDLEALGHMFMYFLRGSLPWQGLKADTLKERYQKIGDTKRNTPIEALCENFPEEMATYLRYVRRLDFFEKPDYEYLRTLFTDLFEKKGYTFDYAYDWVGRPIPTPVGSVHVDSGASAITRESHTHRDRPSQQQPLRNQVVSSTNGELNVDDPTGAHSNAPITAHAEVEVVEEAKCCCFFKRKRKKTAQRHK
Sequence of Cyclin-dependent kinase 11B (Homo sapiens) (P21127 whole entry): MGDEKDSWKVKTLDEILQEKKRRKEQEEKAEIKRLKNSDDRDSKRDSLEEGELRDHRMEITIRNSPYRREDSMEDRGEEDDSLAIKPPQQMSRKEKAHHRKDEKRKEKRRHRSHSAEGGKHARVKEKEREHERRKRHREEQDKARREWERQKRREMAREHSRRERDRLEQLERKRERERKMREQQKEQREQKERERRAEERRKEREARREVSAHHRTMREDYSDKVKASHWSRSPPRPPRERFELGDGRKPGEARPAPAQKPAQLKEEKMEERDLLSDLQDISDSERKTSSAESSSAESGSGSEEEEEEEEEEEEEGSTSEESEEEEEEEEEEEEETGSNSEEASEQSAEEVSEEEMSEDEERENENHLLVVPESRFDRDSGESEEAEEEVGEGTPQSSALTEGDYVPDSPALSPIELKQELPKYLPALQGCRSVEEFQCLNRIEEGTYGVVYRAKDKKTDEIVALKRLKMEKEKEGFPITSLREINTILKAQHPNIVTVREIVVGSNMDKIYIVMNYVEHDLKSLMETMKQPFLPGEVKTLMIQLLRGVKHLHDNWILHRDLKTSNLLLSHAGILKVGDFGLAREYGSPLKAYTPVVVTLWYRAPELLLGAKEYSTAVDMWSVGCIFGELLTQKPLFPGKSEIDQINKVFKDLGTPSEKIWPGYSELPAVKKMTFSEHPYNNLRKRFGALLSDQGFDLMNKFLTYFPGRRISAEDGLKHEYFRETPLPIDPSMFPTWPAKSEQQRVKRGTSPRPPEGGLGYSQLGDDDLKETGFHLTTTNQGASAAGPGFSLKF
Sequence of Dual specificity protein kinase CLK3 (Homo sapiens) (P49761 whole entry, looked up, canonical isoform): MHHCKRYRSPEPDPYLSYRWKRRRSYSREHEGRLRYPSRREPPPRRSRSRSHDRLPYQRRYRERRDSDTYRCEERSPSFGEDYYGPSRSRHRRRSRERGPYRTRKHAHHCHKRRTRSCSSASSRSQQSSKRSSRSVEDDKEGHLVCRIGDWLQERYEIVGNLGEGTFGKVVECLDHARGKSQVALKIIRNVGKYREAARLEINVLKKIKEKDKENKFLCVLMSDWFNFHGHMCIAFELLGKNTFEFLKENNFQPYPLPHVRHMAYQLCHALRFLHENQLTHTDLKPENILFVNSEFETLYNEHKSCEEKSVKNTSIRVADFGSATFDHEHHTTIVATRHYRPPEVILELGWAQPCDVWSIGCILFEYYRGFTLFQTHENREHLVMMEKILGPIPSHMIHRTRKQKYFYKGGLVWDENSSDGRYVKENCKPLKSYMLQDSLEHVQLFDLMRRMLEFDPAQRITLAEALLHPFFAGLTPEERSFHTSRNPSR

Row | SMILES | Activity [1] [%] | Activity [2] [%] | Activity [3] [%] | Activity [4] [%] | Activity [5] [%] | Activity [6] [%] | Activity [7] [%] | Activity [8] [%]
1 | COc1cc2nc(C)nc(N[C@H](C)c3cccc(-c4cn[nH]c4)c3)c2cc1OC | 100 | – | – | – | – | – | – | –
2 | COc1cc2ncnc(N[C@H](C)c3cccc4ccccc34)c2cc1OC | – | 100 | 92 | 99 | 73 | 85 | 100 | 66
